Laboratory results: US6274596A, “Benzoquinoline derivatives useful as antibacterial agents” (priority 1999, dated 2001)
Values after ≈ are worked out from the molar mass of the structure shown. Like-named read-outs stand apart in the source and are kept apart here.

Assays:
E. coli (BAS) [1] = assay: MIC, broth microdilution, E. coli (BAS); format: cell-based
Procedure: (§1) The antimicrobial activity of a compound or formulation according to the invention is determined by exposing a culture comprising a bacterial species to different concentrations of the compound or formulation and monitoring the effects on growth relative to a control culture not exposed to the compound. Any method known in the art may be used to assess bacterial growth. Antimicrobial effects are expressed as Minimal Inhibitory Concentration (MIC) and Minimum Bactericidal Concentration (MBC).
(§2) The MIC is expressed as a range between the concentration at which no growth is observed and the concentration of the dilution which immediately follows.
(§3) Typically, MIC is measured using a broth microdilution assay as follows. Dilution of candidate antimicrobial compounds in culture medium is performed in a sterile, covered 96-well microtiter plate with flat bottom wells (Costar #9017). The final concentrations of the compounds are typically 100, 50, 25, 12.5, 6.25, 3.12, 1.56, 0.78, 0.39, 0.20, 0.10, and 0.05 μg/mL, respectively. Culture medium only (containing no bacteria) is also included as a negative control for each plate. Ampicillin and rifamnpin are used as positive controls against all bacterial strains in every experiment.
(§4) The overnight culture of a single colony is diluted in sterile medium so that, after inoculation, each well contains approximately 5×10^5CFU/mL. Within 15 minutes of preparation, […] of the adjusted inoculum suspension is added to the microliter plate. Each well is diluted with an equal volume of the antimicrobial compounds or control solution. The inoculated microtiter plate is typically incubated at 35° C. for 16-20 hours. The turbidity of each well is determined by measuring the absorbance at 595 nm using a BioRad Model 3550-UV microplate reader.
(§5) The antimicrobial activities of the compounds of the invention, expressed as MIC and MBC, were determined as described above, using as tester strains wild-type S. aureus, rifampicin-resistant S. aureus, wild-type E. coli, and E. coli cells that had been permeabilized.

S. Aureus (Rif-res) [2] = assay: MBC, S. Aureus (Rif-res); format: cell-based; settings: for MBC: Staphylococcus aureus, read-out: MBG
Procedure: as §1
(§6) The minimum bactericidal concentration (MBC) is defined as the concentration of antimicrobial agent from which no colonies grow on petri plates or in the medium. In practice, the MBC is arbitrarily defmed as the concentration at which a 1000-fold reduction in colony forming units is observed with respect to the original inoculum (survival of 0.1%). Typically, the wells from a MIC microliter plate using a 96-well inoculation grid into a fresh microliter plate containing 100 μL Mueller-Hinton broth per well. The MBC plates are incubated at 37° C. for 16-20 hrs and the MBC values are determined.
as §5

S. Aureus [3] = assay: MBC, S. Aureus; format: cell-based; settings: for MBC: Staphylococcus aureus, read-out: MBG
Procedure: as §1, §6, §5

E. coli (MCR106) [4] = assay: MIC, broth microdilution, E. coli (MCR106); format: cell-based
Procedure: as §1, §2, §3, §4, §5

S. Aureus [5] = assay: MIC, broth microdilution, S. Aureus; format: cell-based; settings: for MIC: S. Aureus
Procedure: as §1, §2, §3, §4, §5

E. coli (MCR106) [6] = assay: MBC, E. coli (MCR106); format: cell-based; settings: minimum bactericidal concentration; for MBC: Escherichia coli, read-out: MBG
Procedure: as §1, §6, §5

E. coli (BAS) [7] = assay: MBC, E. coli (BAS); format: cell-based; settings: minimum bactericidal concentration; for MBC: Escherichia coli, read-out: MBG
Procedure: as §1, §6, §5

S. Aureus (Rif-res) [8] = assay: MIC, broth microdilution, S. Aureus (Rif-res); format: cell-based
Procedure: as §1, §2, §3, §4, §5

bacterial RNA polymerase = assay: in vitro transcription, bacterial versus human RNA polymerase; format: biochemical; settings: in words; RNA polymerase from S. aureus, E. coli or human, pTaq promoter template
Text: The compounds useful for inclusion in the pharmaceutical formulations of the invention can be identified by their ability to bind to, and/or inhibit the activity of, one or more bacterial RNA polymerases. RNA polymerase as used herein refers to DNA-dependent RNA polymerase holoenzyme, which is a complex consisting of five protein subunits: two copies of the a subunit and one copy each of the β, β', and σ subunits. The α, β and β' subunits are invariant in a given bacterial species and together form core RNA polymerase.
RNA polymerase inhibition activity of a compound can be detected by including the compound in an in vitro transcription reaction and comparing the level of transcription that occurs in the presence and absence of the compound. […] After incubation for 60 minutes at 25° C., the reaction is terminated with 100 μl 10% TCA, which also precipitates the newly transcribed RNA, and incorporation of radioactivity into RNA is quantified. […]
It will be understood that useful antimicrobial compositions and formulations act selectively on microbial pathogens. […] That is, the inhibitory activity of a particular compound towards an animal RNA polymerase may be measured in parallel with a bacterial RNA polymerase. […]

[9] = Escherichia coli, read-out: MIC
[10] = Staphylococcus aureus, read-out: MIC

Molecule	MIC (E. coli (BAS) [1]; [9])	MBC (S. Aureus (Rif-res) [2])	MBC (S. Aureus [3])	MIC (E. coli (MCR106) [4]; Escherichia coli)	MIC (S. Aureus [5]; [10])	MBC (E. coli (MCR106) [6])	MBC (E. coli (BAS) [7])	MIC (S. Aureus (Rif-res) [8]; Staphylococcus aureus)	selectivity for bacterial RNA polymerase relative to human RNA polymerase (bacterial RNA polymerase)	antimicrobial activity against E. coli (E. coli (MCR106) [4]; in words, MIC and MBC, E. coli strain not named)	antimicrobial activity against S. aureus (S. Aureus [5]; in words, MIC and MBC, compared with the other compounds)	MIC (E. coli (BAS) [1])	MBG (S. Aureus (Rif-res) [2]; S. Aureus (Rif-res), rifampicin-resistant, minimum bactericidal concentration)	MBG (S. Aureus [3]; S. Aureus, minimum bactericidal concentration)	MIC (E. coli (MCR106) [4]; E. coli (MCR106))	MIC (S. Aureus [5])	MBG (E. coli (MCR106) [6])	MBG (E. coli (BAS) [7])	MIC (S. Aureus (Rif-res) [8]; S. Aureus (Rif-res), rifampicin-resistant)
OCCCN1CCN(c2ccc(Nc3ccnc4cc5ccccc5cc34)cc2)CC1 [3{4-[4-(benzo[g]quinolin-4-yl-amino)phenyl]-1-piperazinyl}-1-propanol]	8 µg/mL (≈ 19.4 µM)	8 µg/mL (≈ 19.4 µM)	32 µg/mL (≈ 77.6 µM)	16 µg/mL (≈ 38.8 µM)	32 µg/mL (≈ 77.6 µM)	64 µg/mL (≈ 155 µM)	8 µg/mL (≈ 19.4 µM)	8 µg/mL (≈ 19.4 µM)											
CCCCC(C)Nc1ccnc2cc3ccccc3cc12 (centres unmarked) [N-(1-methylpentyl)benzo[g]quinolin-4-amine]	8 µg/mL (≈ 28.7 µM)	16 µg/mL (≈ 57.5 µM)	16 µg/mL (≈ 57.5 µM)	> 64 µg/mL	16 µg/mL (≈ 57.5 µM)	> 64 µg/mL	16 µg/mL (≈ 57.5 µM)	8 µg/mL (≈ 28.7 µM)											
c1ccc2cc3c(Nc4ccc(N5CCCCCC5)cc4)ccnc3cc2c1 [N-[4-(1-azepanyl)phenyl]benzo[g]quinolin-4-amine]	> 64 µg/mL	1 µg/mL (≈ 2.72 µM)	2 µg/mL (≈ 5.44 µM)	> 64 µg/mL	2 µg/mL (≈ 5.44 µM)	> 64 µg/mL	> 64 µg/mL	1 µg/mL (≈ 2.72 µM)											
CCN1CCC(c2ccc(Nc3ccnc4cc5ccccc5cc34)cc2)CC1 [N-[4-(1-ethyl-4-piperidyl)phenyl]benzo[g]quinolin-4-amine]	32 µg/mL (≈ 83.9 µM)	32 µg/mL (≈ 83.9 µM)	64 µg/mL (≈ 168 µM)		64 µg/mL (≈ 168 µM)	32 µg/mL (≈ 83.9 µM)	32 µg/mL (≈ 83.9 µM)	32 µg/mL (≈ 83.9 µM)											
c1ccc2cc3c(Nc4ccc(N5CCCCC5)cc4)ccnc3cc2c1 [N-[4-(1-piperidinyl)phenyl]benzo[g]quinolin-4-amine]	2 µg/mL (≈ 5.66 µM)	2 µg/mL (≈ 5.66 µM)	4 µg/mL (≈ 11.3 µM)	> 64 µg/mL	2 µg/mL (≈ 5.66 µM)	> 64 µg/mL	2 µg/mL (≈ 5.66 µM)	2 µg/mL (≈ 5.66 µM)	highest degree of selectivity for bacterial RNA polymerases	less effective against E. coli	most potent antimicrobial activity against s. aureus								
C#CCCN1CCN(c2ccc(Nc3ccnc4cc5ccccc5cc34)cc2)CC1 [N-{4-[4-(3-butynyl)-1-piperazinyl]phenyl}benzo[g]quinolin-4-amine]	> 64 µg/mL	16 µg/mL (≈ 39.4 µM)	16 µg/mL (≈ 39.4 µM)	> 64 µg/mL	16 µg/mL (≈ 39.4 µM)	> 64 µg/mL	> 64 µg/mL	16 µg/mL (≈ 39.4 µM)											
CCN(CC)CCNc1ccc(Nc2ccnc3cc4ccccc4cc23)cc1 [N^1-benzo[g]quinolin-4-yl-N^4-[2-(diethylamino)ethyl]-1,4-benzenediamine]	4 µg/mL (≈ 10.4 µM)	8 µg/mL (≈ 20.8 µM)	16 µg/mL (≈ 41.6 µM)	8 µg/mL (≈ 20.8 µM)	16 µg/mL (≈ 41.6 µM)	16 µg/mL (≈ 41.6 µM)	16 µg/mL (≈ 41.6 µM)	8 µg/mL (≈ 20.8 µM)											
CC(C)Nc1ccc(Nc2ccnc3cc4ccccc4cc23)cc1 [N^1-benzo[g]quinolin-4-yl-N^4-isopropyl-1,4,benzenediamine]	> 64 µg/mL	32 µg/mL (≈ 97.7 µM)	8 µg/mL (≈ 24.4 µM)	> 64 µg/mL	8 µg/mL (≈ 24.4 µM)	> 64 µg/mL	> 64 µg/mL	32 µg/mL (≈ 97.7 µM)											
N-{5-benzo[g]quinolin-4-yl-3-[(diethylamino)methyl]-2-methylbenzyl}-N-ethyl-1-ethanamine												16 µg/mL	64 µg/mL	64 µg/mL	64 µg/mL	64 µg/mL	> 64 µg/mL	16 µg/mL	32 µg/mL
